Where a SMILES comes first, the peptide text is derived from it.
What was measured:
Human oligomerised Aβ = test: Soluble Aβ oligomer levels in brain, sandwich ELISA; format: in vivo, human Aβ in APP/PS1 mice; settings: 100 nmol/kg i.p. once daily, 21 days, 10 months old APP/PS1 mice, vs saline; p<0.01, 4 animals per group
Method: (§1) APPswe/PS1ΔE9 mice with a C57Bl/6 background (APP/PS1 mice) were obtained from the Jackson lab (http://research.jax.org/repository/alzheimers.html). […] To look at the effects of RI-OR2-TAT on mouse brain pathology (experiment 2), 8 female 10-months-old APP/PS1 mice were used. The animals were housed in single cages in a temperature controlled holding room (21.5°C±1) with 12∶12 h light and dark cycle. Food and water was available ad libitum.
For experiment 2, 4 animals were injected intraperitonially (i.p.) with 0.9% NaCl (vehicle control) and the other 4 with RI-OR2-TAT (100 nmol/kg in 0.9% NaCl) once daily, for 21 days. On the 22nd day, the animals were perfused transcardially with ice-cold PBS and 4% paraformaldehyde and then the brains were removed and post-fixed in 4% ice cold paraformaldehyde.
Human oligomerised Aβ was measured using a kit purchased from Invitrogen, according to the manufacturer’s instructions. Briefly, the right hemispheres from the brains of transgenic APP/PS1 mice treated with RI-OR2-TAT, or controls, were pooled separately and homogenized. Quantification of total protein was determined using the Bradford protein assay and was measured on a Nanophotometer (Implen, Germany). The homogenates were centrifuged at 100,000 g at 4°C for 1 h. […] The final Aβ oligomer values were determined following normalization of total protein levels.

[1] = system: 8-oxo-guanine in APP/PS1 mouse cortex; test: Oxidative stress, 8-oxo-guanine immunostaining, cortex; format: in vivo; settings: 100 nmol/kg i.p. once daily, 21 days, 10 months old APP/PS1 mice, vs saline, p<0.0001, 4 animals per group
Method: as §1
(§2) For experiment 2, 4 animals were injected intraperitonially (i.p.) with 0.9% NaCl (vehicle control) and the other 4 with RI-OR2-TAT (100 nmol/kg in 0.9% NaCl) once daily, for 21 days. […]
(§3) For experiment 2 (effects on brain pathology), sections were examined for activated microglia (using anti-Iba-1 antibody), oxidative stress (anti-8-oxo-guanine antibody), immature neurons (anti-doublecourtin antibody) or total plaque load (anti-Aβ antibody). […] Oxidative stress was assessed by denaturing DNA in each section using 2N HCl and the sections were then stained for 8-oxo guanine (1∶200 dilution, MAB3560, Millipore). Young immature neurons were detected by immunostaining for doublecortin (1∶200 dilution, sc-66911, Santa Cruz Biotechnology). Total plaque load was quantified by immunostaining for β-amyloid (1∶200 dilution, Invitrogen, 71–5800).
(§4) All sections were visualized using an Axio Scope 1 fluorescence microscope (Zeiss, Germany). […]

Aβ42 fibrils = Aβ42 fibrils (Homo sapiens, UniProt P05067); test: Surface plasmon resonance (SPR), immobilized Aβ42 fibrils; format: binding
Method: These experiments were conducted using a Sensi Q semi-automatic SPR machine (ICx Nomadics). This apparatus has two parallel flow cells; one was used to immobilize Aβ42 fibrils while the other was used as “reference” (empty surface). A COOH5 sensor chip (ICx Nomadics) was employed for this purpose and the peptide was immobilized by amine coupling chemistry. Briefly, after surface activation, the peptide preparation was diluted to 10 µM in acetate buffer (pH 4.0) and then injected for 5 min at a flow rate of 30 µl/min. Any remaining activated groups were blocked with ethanolamine (pH 8.0). The final immobilization level was ∼5,000 resonance units (1 RU = 1 pg of protein/mm^2). The empty “reference” surface was prepared in parallel using the same immobilization procedure, but without addition of the peptide. Sensorgrams were then obtained via injection of three different concentrations of RI-OR2–TAT (1, 3 and 6 µM), as well as the vehicle (PBS with 0.005% Tween 20), over the immobilized ligand or control surface, in parallel. These SPR data can be interpreted to provide an estimate for the affinity of binding of the inhibitors to Aβ fibrils, [28]. Data for the three concentrations of RI-OR2-TAT were fitted separately by Qdat software [ICx Nomadics] using the 1∶1 pseudo-first order Langmuir interaction model. Eq. 1 was used to fit the association while the dissociation was fitted by eq. 2. The rate constants (kon and koff) were used to calculate kd as reported in eq. 3. [drawing 1] (1) [drawing 2] (2) [drawing 3] (3) Where Rt is binding response at time t; C is the molar concentration of the analyte at the interaction surface at time t; Rmax is the maximal binding response; R0 is the binding response at time t0 (i. e. time at the onset of the dissociation phase); kon is the association rate constant; koff is the dissociation rate constant. Values were expressed as a mean ± SD.

[2] = system: SHSY-5Y neuroblastoma cells exposed to pre-aggregated Aβ42; test: Protection against Aβ42 toxicity, LDH assay; format: cell-based; settings: 0.5, 1, 5 or 10 µM inhibitor, 5 µM pre-aggregated Aβ42, 24 h, Optimem
Method: For cell toxicity assays, SHSY-5Y neuroblastoma cells were maintained in 10% Fetal Calf Serum supplemented Dulbecco’s Modified Eagle Medium (DMEM, Gibco) under standard mammalian cell culture conditions. The cells were transferred to sterile 96-well growth plates at 20,000 cells/well and 4 wells per condition. To test for any toxic effects of RI-OR2–TAT alone on the cells, they were left to adhere for 24 h before the addition of the inhibitor (at 12.5, 25, 50, 100 and 200 µM), in DMEM. To assess the ability of RI-OR2–TAT to protect against Aβ toxicity, the cell growth medium was changed to Optimem (Invitrogen) and Aβ42, pre-aggregated (at 100 µM) for 24 h at 25°C in PBS, was added to the cells at a concentration of 5 µM, together with various amounts (0, 0.1, 0.5, 1, 5 or 10 µM) of RI-OR2–TAT. In each case, after a further 24 h incubation period, the viability of the cells was assessed using a CytoTox 96® Non-Radioactive Cytotoxicity Assay (LDH) Assay (Promega) kit.

[3] = system: β-amyloid plaques in APP/PS1 mouse cortex; test: Amyloid plaque load, β-amyloid immunostaining, cortex; format: in vivo; settings: 100 nmol/kg i.p. once daily, 21 days, 10 months old APP/PS1 mice, vs saline, p<0.0001, N = 4 per group
Method: as §1, §2, §3, §4

[4] = system: doublecortin-expressing neurons in APP/PS1 mouse dentate gyrus; test: Young immature neurons, doublecortin immunostaining, dentate region; format: in vivo; settings: 100 nmol/kg i.p. once daily, 21 days, 10 months old APP/PS1 mice, vs saline, p<0.0001, 4 animals per group

Sequence of Aβ42 fibrils (P05067 672-713 limits assumed): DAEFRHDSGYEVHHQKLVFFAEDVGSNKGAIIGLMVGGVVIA

- fold lower kd than previously reported for RI-OR2 (Aβ42 fibrils; Aβ42 fibrils, SPR, RI-OR2 value from ref 16): ~100 -fold
- koff (Aβ42 fibrils; SPR, 1, 3 and 6 µM, 1∶1 Langmuir model, PBS with 0.005% Tween 20, mean ± SD, read-out: koff (dissociation rate constant)): 0.00037 ± 0.00015 s⁻¹
- kon (Aβ42 fibrils; SPR, 1, 3 and 6 µM, 1∶1 Langmuir model, PBS with 0.005% Tween 20, mean ± SD, read-out: kon (association rate constant)): 3680 ± 615 M⁻¹ s⁻¹
- Kd (Aβ42 fibrils; SPR, Aβ42 fibrils, from koff and kon, 1∶1 Langmuir model, three concentrations fitted separately, read-out: kd (calculated apparent affinity)): 58 to 125 nM
Structure (SMILES): CC(=O)N[C@H](CCCNC(=N)N)C(=O)NCC(=O)N[C@H](Cc1ccccc1)C(=O)N[C@H](Cc1ccccc1)C(=O)N[C@@H](C(=O)N[C@H](CC(C)C)C(=O)N[C@H](CCCCN)C(=O)NCC(=O)N[C@H](CCCNC(=N)N)C(=O)N[C@H](CCCNC(=N)N)C(=O)N[C@H](CCCNC(=N)N)C(=O)N[C@H](CCCNC(=N)N)C(=O)N[C@H](CCC(N)=O)C(=O)N[C@H](CCCNC(=N)N)C(=O)N[C@H](CCCNC(=N)N)C(=O)N[C@H](CCCCN)C(=O)N[C@H](CCCCN)C(=O)N[C@H](CCCNC(=N)N)C(=O)NCC(=O)N[C@H](Cc1ccc(O)cc1)C(N)=O)C(C)C [RI-OR2-TAT, Ac-rGffvlkGrrrrqrrkkrGy-NH2] (HELM PEPTIDE1{[ac].[dR].G.[dF].[dF].[dV].[dL].[dK].G.[dR].[dR].[dR].[dR].[dQ].[dR].[dR].[dK].[dK].[dR].G.[dY].[am]}$$$$V2.0)
- reduction of soluble Aß oligomer levels in brain (Human oligomerised Aβ): 25%
- reduction of 8-oxo-guanine immunostaining (oxidative damage) [1]: 25%
- protection against toxic effects of pre-aggregated Aβ42 [2]: protected against the toxic effects
- reduction of amyloid plaque load [3]: 32%
- increase in mean number of young doublecortin-expressing neurons [4]: 210%
